Experimental data: patent US20230136299A1, “TREATMENT OF LIVER FAILURE” (HEPYX LIMITED, priority 2020, published 2023)
Values joined by “and” are separate entries in the source; they are usually repeats but may differ in a detail not shown here. Identical values can stand only once. “Also recorded” adds a separate entry of the source.

How the values were obtained:
[1] = system: C57B/6 mice with CCL4 + GalN induced ACLF; assay: CCL4 + galactosamine (GalN) non-inflammatory ACLF mouse model; conditions: for RIPK3 expression (necroptotic cell death) / liver cell death (TUNEL): value (range)
Procedure: C57B/6 mice were gavaged for 6-weeks with carbon tetrachloride (CC14) 0.5 ml/ml to induce chronic liver injury (n=8 per group). Thereafter, galactosamine (GalN) (1000 mg/kg) was administered to induce a non-inflammatory liver injury and treatment with the RIPK1 inhibitor, RIPA56 3 mg/kg i.p. was initiated every 12-hrs.

[2] = system: C57B/6 mice with CCL4 + LPS induced ACLF; assay: CCL4 + LPS ACLF mouse model; format: in vivo; conditions: for proliferating (Cyclin A positive) hepatocytes: 5 days treatment; for CyclinA2/TUNEL ratio: CCl4-LPS 24-hr treatment model
Procedure: Thereafter injection of LPS (Klebsiella, 4 mg/kg, i.p.) served as a second hit to induce organ injury. […] CCL4- Carbontetrachloride; G-CSF - granulocyte colony stimulating factor.
Thereafter injection of LPS (Klebsiella, 4 mg/kg, i.p.) served as a second hit to induce organ injury.
Thereafter injection of LPS (Klebsiella, 4 mg/kg, i.p.) served as a second hit to induce organ injury. […] It majorly regulated the transition from G2 to M phase. […] E) BCL2 is the effector molecule of the STAT3 pathway which carries anti-apoptotic and antibacterial properties. […] Image J was used for image quantification and group comparison was performed by one-way ANOVA and post-hoc Tukey’s multiple comparison mRNA data is delineated as ddCt value. Western blots were performed with protein lysates pooled from all animals per group. G) Liver protein expression of markers of inflammation, cell death and regeneration/senescence (CC14-LPS 24 h treatment model). Liver lysates from 4 randomly selected animals per group were pooled and applied onto one profiler membrane.
Second, due to the conflicting data concerning the therapeutic benefit of G-CSF the present inventors performed pre-clinical studies in well-established rodent models of ACLF in order to clarify the effect of stem cell mobilisation. C57BL/6 Mice were gavaged with carbon tetrachloride (CCL4) for 6 weeks to induce liver fibrosis and subsequently injected with lipopolysaccharide (LPS) to induce tissue injury and organ failure. One hour after LPS injection mice were treated with G-CSF subcutaneously 250 µg/kg once daily for 5 consecutive days (FIG. 1A).
The inventors then tested whether TLR4 inhibition (e.g. TAK-242) rescues from G-CSF driven injury and inflammation in preclinical models of ACLF.

[3] = system: THP1 monocytes; assay: THP1 response to LPS after G-CSF stimulation, monocytes; format: cell-based; conditions: for IL-6 mRNA expression / IL-1b expression: LPS 10 ng/mL ± G-CSF 100 ng/mL, TAK-242 200 nM, compared to unstimulated cells; for IL-6 mRNA expression: 3-hr after LPS
Procedure: (§1) Densitometry was measured by using ImageJ and values are depicted as mean pixel density. After sample pooling no statistical comparison could be applied. H) Liver aSMA expression (CC14-LPS 24 hours treatment model) Liver sections were stained for aSMA (n=4 per group) as a marker of stellate cell activation. LPS increased the aSMA positive area from 1.4% ± 0.6 in CC14 animals to 8.6% ± 1.9 (p<0.001) and 9% ± 4.1 (p<0.001) when combined with G-CSF. […] Image J was used for image quantification and group comparison was performed by one-way ANOVA and post-hoc Tukey’s multiple comparison. I) THP1 response to LPS after G-CSF stimulation. THP1 were PMA activated into a macrophage like phenotype and stimulated with LPS (10 ng/mL) ± G-CSF (100 ng/mL) (2 batches in 2 replicates). Treatment was performed with TAK-242 200 nM in two of the groups. RNA extraction to measure cytokine response was performed 3-hr after LPS incubation. LPS induced an upregulation of IL-6 mRNA expression 60.2-fold in THP1 monocytes and 6.2-fold in macrophages which was enhanced by pre-incubation with G-CSF (monocytes 71-fold, macrophages 6.7-fold). TAK-242 reduced IL-6 mRNA expression compared to unstimulated cells to 5.1-fold in monocytes and 2.8-fold in macrophages resembling biological significance. […] G-CSF exaggerated the IL-1b expression 2.5-fold compared to unstimulated cells whereas it remained unchanged in macrophages (1.1-fold compared to unstimulated cells). TAK-242 decreased the IL-1b response in both cell lines (monocytes 1.3-fold and macrophages 0.7-fold compared to unstimulated cells). J) Proliferative effect of G-CSF after CC14. […] G-CSF (250 µg/kg, s.c.) was injected without previous LPS administration once daily for 5-days. Results were compared to groups administered LPS. […] Ki67 expression as a marker of hepatocyte division increased from 0.6% ± 0.2 after CC14 + LPS + G-CSF to 4.1% ± 2.9 (p<0.001) after CC14 + G-CSF. Image J was used for image quantification and group comparison was performed by one-way ANOVA and post-hoc Tukey’s multiple comparison.
(§2) Monocytes and macrophages are major source of cytokine release in liver disease. The inventors therefore tested in vitro, to what extent LPS and G-CSF modulate the cytokine response in PMA activated and native THP1 cells. […] These in vitro findings are in keeping with hepatic IL6 levels, which increased 2.8-fold in G-CSF-treated animals (FIG. 4D). […] The data help to explain the reduction in markers of organ injury in the ACLF animals treated with G-CSF/TAK-242.

[4] = system: PMA-activated THP1 macrophage-like cells; assay: THP1 response to LPS after G-CSF stimulation, PMA activated macrophages; format: cell-based; conditions: for IL-6 mRNA expression / IL-1b expression: LPS 10 ng/mL ± G-CSF 100 ng/mL, TAK-242 200 nM, compared to unstimulated cells; for IL-6 mRNA expression: 3-hr after LPS
Procedure: as §1, §2

[5] = system: rat ACLF model (BDL + LPS); assay: BDL + LPS rat ACLF model; conditions: LPS after BDL, TAK-242 10 mg/kg i.p. before and after LPS
[6] = system: C57B/6 mice with CCL4 induced chronic liver injury; assay: G-CSF after CCL4 without LPS (chronic liver injury mice); format: in vivo; conditions: CCl4 + G-CSF 250 µg/kg s.c. once daily for 5-days, no LPS
Procedure: Densitometry was measured by using ImageJ and values are depicted as mean pixel density. After sample pooling no statistical comparison could be applied. H) Liver aSMA expression (CC14-LPS 24 hours treatment model) Liver sections were stained for aSMA (n=4 per group) as a marker of stellate cell activation. LPS increased the aSMA positive area from 1.4% ± 0.6 in CC14 animals to 8.6% ± 1.9 (p<0.001) and 9% ± 4.1 (p<0.001) when combined with G-CSF. […] Image J was used for image quantification and group comparison was performed by one-way ANOVA and post-hoc Tukey’s multiple comparison. I) THP1 response to LPS after G-CSF stimulation. THP1 were PMA activated into a macrophage like phenotype and stimulated with LPS (10 ng/mL) ± G-CSF (100 ng/mL) (2 batches in 2 replicates). Treatment was performed with TAK-242 200 nM in two of the groups. RNA extraction to measure cytokine response was performed 3-hr after LPS incubation. LPS induced an upregulation of IL-6 mRNA expression 60.2-fold in THP1 monocytes and 6.2-fold in macrophages which was enhanced by pre-incubation with G-CSF (monocytes 71-fold, macrophages 6.7-fold). […] Image J was used for image quantification and group comparison was performed by one-way ANOVA and post-hoc Tukey’s multiple comparison.

[7] = system: patients with ACLF; assay: GRAFT multicentre randomised controlled trial of G-CSF in ACLF (NCT02669680); format: in vivo, human
Description: The pathobiology of ACLF is characterised by immunopathological features comprising two opposing mechanisms as the main drivers of organ failure which are active concurrently. The first is systemic and hepatic inflammation triggered by pathogen-associated molecular patterns (PAMPs) and cell death molecules (damage associated molecular patterns (DAMPs)) mediated through the TLR4 receptor pathway. PAMPs derive through translocation of gut-derived bacteria and bacterial products (such as lipopolysaccharide-LPS) to the liver via portal the portal vein, promoting pro-inflammatory responses through the toll-like 4 (TLR4) -dependent canonical inflammasome on immune cells, as well as the TLR4-independent non-canonical inflammasome in hepatocytes (3). […] The second is a prolonged organ injury, immune cell paralysis and failure of regeneration facilitating prolonged organ dysfunction and secondary infections culminating into a vicious cycle leading to multi-organ failure and death. Stem cells and other regulatory immune cells are known to modulate immune activation thereby modulating inflammatory reactions and supporting tissue repair capacities (5). Granulocyte colony stimulating factor (G-CSF) mobilizes stem and immune cells and is perceived to carry immunomodulatory and pro-regenerative properties. […]

[8] = system: patients with ACLF; conditions: from 30% without G-CSF; cited from earlier work
[9] = RIPA56 3 mg/kg i.p. every 12-hrs, n=3
[10] = RIPA56 3 mg/kg i.p. every 12-hrs, p<0.001 compared to CCl4 + GalN, 3 mg/kg
[11] = LPS +/- G-CSF, TAK-242 10 mg/kg i.p. twice for 24 h, 10 mg/kg

CCC(C)(C)C(=O)N(O)Cc1ccccc1 [RIPA56]
Cyclin A2 (hepatocyte proliferation) [1, 9]: 0.03% ± 0.1 | Ki67 (hepatocyte proliferation) [1, 9]: 0.2% ± 0.2 | GalN-induced cell death (TUNEL) [1, 10]: effectively prevented; also recorded: reduced | RIPK3 expression [1, 10]: effectively prevented; also recorded: reduced

CCOC(=O)C1=CCCC[C@H]1S(=O)(=O)Nc1ccc(F)cc1Cl [TAK-242, Ethyl (6R)-6-[N-(2-chloro-4-fluorophenyl)sulfamoyl]cyclohex-1-ene-1-carboxylate]
proliferating (Cyclin A positive) hepatocytes [2]: not proliferating | proliferating (Cyclin A positive) hepatocytes ([2]; listed as TAK242): did not enhance | CyclinA2/TUNEL ratio [2]: 1.4 | ALT levels [2, 11]: reduction in plasma ALT levels; also recorded: prevented | liver cell death (TUNEL) [2, 11]: reduction in liver cell death; also recorded: prevented | CDKN2A (p16) mRNA level ([2]; after LPS injection): decreased in a stepwise manner | stellate cells activation (aSMA expression) ([2]; after LPS injection): significantly abrogated | G-CSF-related death ([2]; mouse, in vivo): protected from G-CSF-related death | hepatic cytokine expression (mRNA) (IL6, TNFa) ([2]; mouse, in vivo): reduced | liver protein expression of vascular regeneration and regeneration markers (angiopoietin 2, proliferin, PDGF, IL-22, Flt3-ligand, IGFBP-1) ([2]; proteome profiler, pooled liver lysates, 24-hours): reduced | IL-6 mRNA expression [3]: 5.1 fold | IL-1b expression [3]: 1.3 fold | cytokine response to LPS alone or in combination with G-CSF ([3]; in the presence of TAK-242): completely prevented | IL-6 mRNA expression [4]: 2.8 fold | IL-1b expression [4]: 0.7 fold | cytokine response to LPS alone or in combination with G-CSF ([4]; in the presence of TAK-242): completely prevented | ALT levels ([5]; 10 mg/kg): improving plasma ALT levels; also recorded: significantly reduced | liver cell death (TUNEL) ([5]; recAP pre-treatment 1000 U/kg i.p. over 4 days): effective in reducing cell death in the liver; also recorded: significantly reduced | Cyclin A2 (proliferating hepatocytes) ([1]; 48 hours treatment): 1.9% ± 1.6 | Ki67 (proliferating hepatocytes) ([1]; 48 hours treatment): 3% ± 2.1 | p21 (hepatocytes in cell cycle arrest) ([1]; 48 hours treatment): 7.1% ± 4.5 | RIPK3 expression (necroptotic cell death) ([1]; 48 hours treatment): 1.7% (range 0.9-2.1) | liver cell death (TUNEL) ([1]; 48 hours treatment): 1.4% (range 0.4-3.3) | CyclinA2/TUNEL ratio ([1]; GalN 48-hr treatment): 0.9 | degree of proliferating (Cyclin A2, Ki67) and senescent (p21) hepatocytes ([1]; mouse, in vivo): did not alter; also recorded: maintained

B1: G-CSF: Granulocyte colony stimulating factor, a glycoprotein that mobilizes stem and immune cells; recombinant murine G-CSF used in mice (protein, UniProt P09920 31-208, looked up)
Granulocyte …: VPLVTVSALPPSLPLPRSFLLKSLEQVRKIQASGSVLLEQLCATYKLCHPEELVLLGHSLGIPKASLSGCSSQALQQTQCLSQLHSGLCLYQGLLQALSGISPALAPTLDLLQLDVANFATTIWQQMENLGVAPTVQPTQSAMPAFTSAFQRRAGGVLAISYLQGFLETARLALHHLA
liver fibrosis (Sirius Red) ([2]; 5-days G-CSF treatment): higher degree of liver fibrosis; also recorded: enhanced liver fibrosis; also recorded: pro-fibrotic effect | hepatic macrophage infiltration (F4/80+) ([2]; 5 days G-CSF treatment): persisted; also recorded: aggravated liver macrophage infiltration; also recorded: maintained macrophage infiltration | proliferating (Cyclin A positive) hepatocytes [2]: increased the number of proliferating hepatocytes significantly | Cyclin A2 expressing hepatocytes ([2]; CCl4 + LPS + G-CSF, 5 days): 1.4% ± 0.7 | Ki67 expression (hepatocyte division) ([2]; CCl4 + LPS + G-CSF, 5 days): 0.6% ± 0.2 | CyclinA2/TUNEL ratio [2]: 0.04 | mortality ([2]; G-CSF 250 µg/kg s.c. once daily, within 48 hours after LPS injection): 50% and 66% | hepatic IL6 levels, increase ([2]; G-CSF-treated animals (FIG. 4D)): 2.8 fold | survival ([2]; after 48 hours, G-CSF 250 µg/kg s.c. +/- TAK-242 10 mg/kg i.p.): 50% | number of senescent hepatocytes ([2]; after 5 days of treatment): plummet significantly | TLR4+ liver infiltrating CD45+ cells ([2]; after G-CSF treatment (FIG. 2C)): increased | CDKN2A (p16) mRNA level ([2]; after LPS injection): decreased in a stepwise manner | aSMA positive area (stellate cell activation) ([2]; liver sections, CCl4-LPS 24 hours treatment model, n=4 per group): 9% ± 4.1 | hepatic cytokine expression (mRNA) (IL6, TNFa) ([2]; mouse, in vivo): increased | number of p53 positive (senescent) hepatocytes ([2]; mouse, in vivo): reduced numerically | injury markers (such as Lipocalin/NGAL and IL-13), protein profiler ([2]; pooled liver lysates, 24 h treatment model): increased | Cyclin A2 expressing hepatocytes [6]: 2.1% ± 1.3 | Ki67 expression (hepatocyte division) [6]: 4.1% ± 2.9 | IL-6 mRNA expression [3]: 71 fold | IL-1b expression [3]: 2.5 fold | IL-6 mRNA expression [4]: 6.7 fold | IL-1b expression [4]: 1.1 fold | survival rate / mortality of patients with ACLF ([7]; 163 patients, G-CSF vs standard of care, interim analysis): did not improve the survival rate; also recorded: no effect on mortality | mortality in subgroups (alcoholic hepatitis, ACLF according to the APASL criteria) ([7]; in vivo): tend to increased mortality; also recorded: may be deleterious | survival after 60 days [8]: 70% | RIPK3 expression (necroptotic cell death) ([1]; 48 hours treatment): 1.9% (range 0.9-2.5) | liver cell death (TUNEL) ([1]; 48 hours treatment): 1.2% (range 0.4-1.9) | cell death and subsequent regenerative response ([1]; mouse, in vivo): reduced cell death and the subsequent regenerative response | degree of proliferating (Cyclin A2, Ki67) and senescent (p21) hepatocytes ([1]; mouse, in vivo): reduced
